Data taken from patent US20260364030A1, “NOVEL SELECTIVE INHIBITORS OF LYSYL OXIDASES” (Syntara Limited, priority 2022, published 2026).
pIC50: −log10 of the molar value.

Key:
[1] = test system: lysyl oxidase; conditions: various models (e.g. CCl4, bleomycin, quartz, cancer) and tissues (e.g. liver, lung and dermis); cited from earlier work
[2] = test system: ovarian cancer; conditions: ovarian cancer genetically engineered mouse models; cited from earlier work
[3] = test system: SiHa cervical cancer cells; conditions: in vitro, hypoxic/anoxic conditions; cited from earlier work
[4] = test system: massive, pedunculated keloids; conditions: BAPN or penicillamine, and colchicine; following excision of keloid and grafting; cited from earlier work
[5] = test system: LOX; conditions: CIA rats; cited from earlier work
[6] = Stability in topical formulation (purity profile at room temperature); type: physicochemical; conditions: for % Purity of Compound 1 in topical formulation: 1% Compound 1
[7] = biological target: T1, LOXL1 (Homo sapiens, UniProt Q08397); test: Time-dependent inhibition of LOXL1, Amplex Red oxidation assay; type: biochemical; conditions: for pIC50: 37 °C
T1 sequence (Q08397 96-574): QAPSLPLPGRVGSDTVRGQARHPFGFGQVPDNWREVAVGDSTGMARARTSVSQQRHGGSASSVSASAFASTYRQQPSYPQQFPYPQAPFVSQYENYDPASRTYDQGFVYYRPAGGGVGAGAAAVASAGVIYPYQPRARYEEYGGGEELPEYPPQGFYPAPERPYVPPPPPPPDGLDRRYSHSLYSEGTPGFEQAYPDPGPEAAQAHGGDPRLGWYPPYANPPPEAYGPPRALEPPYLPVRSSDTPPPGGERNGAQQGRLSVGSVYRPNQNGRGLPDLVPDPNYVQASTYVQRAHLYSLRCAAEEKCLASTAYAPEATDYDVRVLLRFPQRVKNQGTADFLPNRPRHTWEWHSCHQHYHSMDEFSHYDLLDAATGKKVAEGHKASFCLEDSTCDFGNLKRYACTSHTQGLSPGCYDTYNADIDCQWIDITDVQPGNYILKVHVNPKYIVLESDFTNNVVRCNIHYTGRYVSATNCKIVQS
Description: The time dependent inhibitory effects of the Compound 1 of the present invention were tested against the given LOXL1 preparation and LOXL2 preparation using a method based on the detection of hydrogen peroxide with an Amplex Red oxidation assay [Zhou et al. 1997]. The assay was developed for use in either 384 or 96 well format. Briefly, in a standard black, clear bottom 384 well plate assay 25 µL of a dilution of any of the isoenzymes and orthologues in 1.2 M urea, 50 mM sodium borate buffer (pH 8.2) were added into each well in the presence of […] and 0.5 mM pargyline (to inhibit SSAO and MAO-B and MAO-A, respectively; not necessary if the enzyme is from a recombinant or purified form). Test compound (Compound 1) was dissolved in DMSO and tested in a Concentration Response Curve (CRC) with 11 data points, typically in the micromolar or nanomolar range after incubation with the enzyme for different time points at 37 °C. 25 μL of a reaction mixture containing twice the KM concentration of putrescine (Sigma Aldrich, e.g. 20 mM for LOXL1 or 10 mM for LOXL2), 120 µM Amplex Red (Thermo Fisher Scientific) and 1.5 U/mL horseradish peroxidase (Sigma Aldrich) prepared in 1.2 M urea, 50 mM sodium borate buffer (pH 8.2) were then added to the corresponding wells. The fluorescence (RFU) was read every 2.5 min for 30 min at 37 °C, excitation 544 nm and emission 590 nm (Optima; BMG labtech). The slope/min of the kinetics for each well was calculated using MARS data analysis software (BMG labtech) and this value was used to deduce the IC50 value (Dotmatics).

[8] = test system: collagen cross-links; test: Rodent injury model (full-thickness skin excision); type: in vivo, mice
Description: Mice received injury by excision of full-thickness skin (3 cm^2 on the flank of the mice). In the treatment groups, 4% Compound 1 solution was applied topically, once a day, starting from 24 hours post injury to 1 week post injury. Wounds were then left to heal for an additional week. Mice were euthanized at 4-6 weeks post injury and the tissue was analyzed for collagen content, hydroxyproline as a surrogate marker of collagen content, extracted cross-link biomarkers: HLNL, DHLNL (reduced forms of deH-HLNL and deH-DHLNL respectively), PYD and DPD, elastin content, and changes in gross morphology and histology (using polarised light microscopy, immunohistochemistry, standard staining markers and LCMSMS).

[9] = 4% solution topically once a day, 24 hours to 1 week post injury, vs control (FIG. 4, *=P≤0.05)

SMILES | Reduction of collagen content [1] | Survival and lung metastasis [2] | Invasion of SiHa cells [3] | Effect on surface scarring [4] | Effect on inflammation, synovial hyperplasia, angiogenesis, MMP-2 and MMP-9 expression [5] | % Purity of Compound 1 in topical formulation ([6]; room temperature, t = 3 months, 129600 min) | % Purity of Compound 1 in topical formulation ([6]; room temperature, t = 6 months, 259200 min) | % Purity of Compound 1 in topical formulation ([6]; room temperature, t = 9 months, 388800 min) | % Purity of Compound 1 in topical formulation ([6]; t = 0) | Compound peak percentage in topical formulation ([6]; topical formulation 1, at all tested time points) | pIC50 ([7]; 30′ incubation) | pIC50 ([7]; 2 h incubation) | pIC50 ([7]; 4 h incubation) | Time dependent LOXL1 inhibition ([7]; apparent potency increasing with time) | Immature crosslinks (LCMS, normalized for protein content) [8, 9] | Mature crosslinks (LCMS, normalized for protein content) [8, 9] | Collagen cross-links ([8]; rodent injury model, FIG. 4 (*=P≤0.05))
N#CCCN [BAPN, β-aminopropionitrile, reference compound] | efficacious in reducing collagen content | significantly increased survival and decreased lung metastasis | repressed | measurable beneficial effect on surface scarring | attenuate inflammation, synovial hyperplasia, angiogenesis and expression of MMP-2 and MMP-9 | – | – | – | – | – | – | – | – | – | – | – | –
NC/C(=C\F)CS(=O)(=O)c1ccccc1 [Compound 1, (E)-3-fluoro-2-((phenylsulfonyl)methyl)prop-2-en-1-amine] | – | – | – | – | – | 99.81% | 99.82% | 99.79% | 99.83% | above 99.5% | 5.02 | 5.77 | 6.04 | time dependent LOXL1 and LOXL2 inhibition | reduced | reduced | reduction in collagen cross-links
